Where two headings read alike, the source gives them in different places.
Columns and labels:
PKA = PKA activity in cells; assay type: cell-based, human
[1] = test system: senescent cells (human fibroblasts); assay: Microscope observation of morphology of senescent cells; assay type: cell-based; details: day 4
Procedure: In the meantime, when senescent cells were treated with ACI, p21 expression was reduced on day 2 and day 4. […] Microscope observation also confirmed that young cell like cells were increased compared with the control (untreated senescent cells are bigger in size, so that less cells can be observed under microscope, compared with treated senescent cells). […] So was cyclin D1 expression (FIG. 3B). […] Thus, when senescent cells were treated with ACI, p21 and cyclin D1 expressions were reduced and thereby DNA synthesis in senescent cell increased to induce cell proliferation.

[2] = test system: senescent cells (human fibroblasts); assay: Cell cycle analysis by flow cytometry (S phase entry), senescent cells; assay type: cell-based; details: 30 μM LPA, 300 μM ACI, 1, 2, 4 days
Procedure: (§1) At this time, cell numbers regarded as significant compared with that of the control were presented in (A) and (B) (p<0.001). Cell cycle in (C) was analysed by flow cytometry. The percentage of cells entered S phase was averaged of three repeated measurements (p<0.001). Young and senescent cells were treated with 30 μM of LPA, 300 μM of ACI, LPA+ACI, 10 mM of AMPKI or 10 mM of AICAR, followed by culture for 1, 2, and 4 days. To analyze cell cycle, the cells were washed with buffer twice and then the cells were centrifuged using 0.25% trypsin, followed by fixation in cold 70% ethanol. Analysis was performed by flow cytometry (Becton Dickinson FACSorter) using […] of PI containing RNase. Cell proliferation and cAMP level were increased by LPA in senescent cells (Yeo et al., 2002). The AC inhibitor (ACI) was added to reduce cAMP which had been increased by LPA. And then, cell proliferation was investigated. Cells were cultured in serum-free medium for 2 days to arrest them in G0/G1 phase. Then, the cells were treated with LPA, ACI or LPA+ACI. Total cell number was measured on day 1, day 2 and day 4, or the cells entered into S phase were counted to evaluate cell proliferation. When young cells were treated with 300 μM of ACI, cell proliferation was reduced, compared with control (FIG. 1A). […]

cAMP = details: cited from earlier work
[3] = test system: young cells (human fibroblasts); assay: Cell cycle analysis by flow cytometry (S phase entry), young cells; assay type: cell-based; details: 30 μM LPA
Procedure: as §1

Compound	PKA activity (PKA; senescent cells)	PKA activity (PKA; young cells)	change of senescent cells into young cell like cells [1]	cell number entered into S phase [2]	cAMP level (cAMP; senescent cells (Yeo et al., 2002))	cAMP level (cAMP; young cells (Jang et al., 2006b))	S phase entry [3]
Nc1ncnc2c1ncn2C1CCCO1 (stereo not shown) [ACI, 9-(tetrahydro-2′-furyl)adenine]	completely inhibited	completely inhibited	most cells were changed into young cell like cells	increased	–	–	–
lysophosphatidic acid [LPA]	–	–	–	–	increased	down-regulated	promotion of S phase entry

— patent US20110124607A1, “COMPOSITION FOR REGULATION CELLULAR SENESCENCE COMPRISING LYSOPHOSPHATIDIC ACID AND INHIBITOR OF ADENYLYL CYCLASE AS ACTIVE INGREDIENTS” (priority 2008, published 2011)
